The subject of test [1] is Clostridium perfringens FERM BP-4584 (7544S) cell growth-stimulating protein having proteinase activity (MW about 420,000). The format is biochemical.
Test [2] has the same test system. The format is biochemical. The source holds these as a separate data set.
The mark [3] stands for this setting: inhibitor conc. 0.01 mM, substrate Suc-Ala-Ala-Pro-Phe-MCA.
[4] abbreviates: inhibitor conc. 1.0 mM, substrate Suc-Ala-Ala-Pro-Phe-MCA.

Read-outs that look alike come from different tables or passages of the source. *1 amine or outer side, *2 acyl side, *3 side chain or, on linkers, in order; H or OH if unused. Where a SMILES comes first, the peptide text is derived from it. [ ]: non-standard residue; d: D form. The star is where a group is joined. Sta = CC(C)C[C@H](N)[C@@H](O)CC(=O)O; AMC = Cc1cc(=O)oc2cc(N*)ccc12; Suc = O=C(CCC(=O)[*:2])[*:1]; Isovaleryl = CC(C)CC(=O)*

On to `CC(C)C[C@H](NC(=O)N[C@H](C(=O)N[C@@H](CCC(N)=O)C(=O)N[C@@H](C)C=O)[C@@H]1CCNC(=N)N1)C(=O)O` [Elastatinal], for which the Residual activity in test [1] (setting [3]) was 98%.

As for `O=C(O)CN(CCN(CC(=O)O)CC(=O)O)CC(=O)O` [Ethylenediamine tetraacetic acid], the Residual activity in test [1] (setting [4]) is recorded as 34%.

`O=C(O)CI` [Iodoacetic acid]: the Residual activity in test [1] (inhibitor conc. 0.1 mM, substrate Suc-Ala-Ala-Pro-Phe-MCA) was 100%.

`CC(C)CC(=O)N[C@H](C(=O)N[C@H](C(=O)N[C@@H](CC(C)C)[C@@H](O)CC(=O)N[C@@H](C)C(=O)N[C@@H](CC(C)C)[C@@H](O)CC(=O)O)C(C)C)C(C)C` [Pepstatin A] (Isovaleryl-VV[Sta]A[Sta]-OH): the Residual activity in test [1] (setting [3]) amounted to 103%.

A word on the Km: it is the substrate concentration at which the rate is half of its maximum. Consider `Cc1cc(=O)oc2cc(NC(=O)[C@H](Cc3ccccc3)NC(=O)[C@@H]3CCCN3C(=O)[C@H](C)NC(=O)[C@H](C)NC(=O)CCC(=O)O)ccc12` [Suc--Ala--Ala--Pro--Phe--MCA, succinyl-alanyl-alanyl-prolyl-phenylalanine-4-methyl-coumaryl-7-amide] (Suc-AAPF-{AMC}), for which the Michaelis-Menten constant (Km) in test [2] amounted to 4.2 mM. In addition, the Vmax in test [2] (substrate Suc-Ala-Ala-Pro-Phe-MCA, optimum pH 6.2-7.0) is given as 230 μ mol/min/mg.

As to `c1cnc2c(c1)ccc1cccnc12` [o-Phenanthroline], the Residual activity in test [1] (setting [4]) is recorded as 85%.

As for Chymostatin, the Residual activity in test [1] (setting [3]) is given as 62%.

Consider Toluene sulfonylfluoride, for which the Residual activity in test [1] came to 1%.

The values are drawn from patent US5464818A (priority 1993, dated 1995).
